Measurements: patent publication US20210093714A1, “Combination and method for inhibiting the cancer cells” (NATIONAL TAIWAN UNIVERSITY, priority 2013, published 2021)
Residues, ends and D or L forms follow the SMILES beside them. *: point of attachment. Cbz = O=C(OCc1ccccc1)*

What was measured:
[1] = test system: CCN2 transfected lung adenocarcinoma cell line, CL1-5; experiment: MTT Assay, chemotherapy drugs on CCN2 transfected CL1-5; assay type: cell-based, human; settings: suspended CCN2 transfected CL1-5; increasing dose 0 to 10 μM; 24 hrs; FIG. 8A
Experimental: First, the effect of CCN2 on the suspended lung adenocarcinoma cell line, CL1-5, treated with chemotherapy was observed by MTT Assay, the results shown in FIG. 8A (Cells were treated for 24 hrs, *P<0.05, **P<0.01). […] In this embodiment, paclitaxel treatment with a concentration between 1 μM and 10 μM is perferred, and 10 μM is most preferable; doxorubicin treatment with a concentration between 0.5 μM and 10 μM is perferred, and 5 μM is most preferable.

EGFR [2] = experiment: Western blot of CCN2-induced EGFR degradation; assay type: cell-based, human; settings: CL1-5 with CCN2
Experimental: (§1) Proteins ([…]) were separated by SDS-PAGE and transferred to a polyvinylidene difluoride membrane (Immobilon-P membrane; Millipore) by electrotransfer. The blot was blocked in a solution of 5% skim milk and 0.1% Tween 20 in PBS. Thereafter, membrane-bound proteins were probed with the following primary antibodies: CCN2, DAPK, phosphorylated ERK, ERK-1, phosphorylated Akt, Akt, TrkA, phosphorylated-Src, Src, b-actin, a-tubulin (Santa Cruz Biotechnology), p-EGFR, and EGFR (Cell Signaling Technology, Danvers, MA, USA). The membrane was washed and then incubated with HRP-conjugated secondary antibodies for 30 min. Enhanced chemiluminescence reagents (Amersham Pharmacia Biotech, Piscataway, N.J., USA) were employed to depict the protein bands on membranes. The light was captured on Kodak X-Omat Blue autoradiography film (PerkinElmer Life Sciences, Boston, Mass., USA).
This embodiment focuses on whether CCN2 interacts with EGFR. At first, the effect of MG132 and CCN2 on the degradation of EGFR in the lung adenocarcinoma cell line, CL1-5, and the effect of cycloheximide and CCN2 on the degradation of EGFR in the lung adenocarcinoma cell line, CL1-5,were observed by western blot analysis, the results shown in FIGS. 4A and 4B. […] On the other hand, cycloheximide can gradually promote CCN2-induced EGFR degradation and attenuated the protein signal intensity(Fold) of EGFR (attenuated from 0.74 to 0.39)(as shown in FIG. 4B) with increasing time (0 hours, 12 hours, 24 hours, 48 hours). Thus, CCN2 can destabilize EGFR and enhance the degradation of EGFR.

ERK = experiment: Western blot of ERK phosphorylation; assay type: cell-based, human; settings: CL1-5; PD98059 0, 10, 20 μM; FIG. 6E
Experimental: as §1
This embodiment focuses on the effect of CCN2 on the EGFR-induced signaling pathways. At first, the effect of exogenous CCN2(rCCN2) on the MAPK/AKT signaling pathways in the lung adenocarcinoma cell lines, CL1-5, A549 and CL1-0/siCCN2 was observed by western blot analysis, the results shown in FIG. 3A.

DAPK = experiment: Western blot of DAPK expression; assay type: cell-based, human; settings: CL1-5; PD98059 0, 10, 20 μM; FIG. 6E
Experimental: as §1
This embodiment focuses on the downstream signaling in CCN2-induced anoikis. At first, the effect of DAPK which can up-regulate CCN2 played on CCN2 induced anoikis and metastasis inhibition of lung adenocarcinoma cell lineswas observed by RT-PCR, dual luciferase reporter assay and western blot analysis, the results shown in FIGS. 6A to 6C. […] In addition, in the lung adenocarcinoma cell line, CL1-0/siCCN2, DAPK expression is suppressed, and DAPK expression also be suppressed with increasing dose (0 μg, 1μg, 3μg), (as shown on the top right in the FIG. 6C). Therefore, CCN2 induced DAPK expression in time- and dose-dependent manners.

EGFR [3] = experiment: Immunoprecipitation and in vitro binding assay of CCN2 and EGFR; parameters: species or system human; settings: A549; rEGF 20 ng/mL for 24 h; rCCN2 100 ng/mL; FIG. 2C
Experimental: CCN2 transfectants were seeded overnight and incubated in serum-free media for 24 h. For immunoprecipitations, cells were lysed in an RIPA buffer (150 mM NaCl, 50 mM Tris-base, 5 mM EDTA, 1% NP-40, and 0.25% deoxycholate; pH 7.4). Protein concentrations were determined using the BCA protein assay kit (Pierce, Rockford, Ill., USA). Lysate was incubated for 2 h at 4[…] with gentle rotation with rabbit polyclonal antibodies for human EGFR, CCN2, or Src immobilized onto protein A—sepharose beads (Santa Cruz Biotechnology, Santa Cruz, Calif., USA). Beads were washed twice with an IP buffer (137 mM NaCl, 2.7 mM KCl, 1 mM MgCl2, 1 mM CaCl2, 1% NP-40, 10% glycerol, 1 mg/ml bovine serum albumin, and 20 mM Tris; pH 8.0), boiled in a sodium dodecyl sulfate-polyacrylamide gel electrophoresis (SDS-PAGE) sample buffer, and centrifuged (12000×g, 4° C. for 15 min).
The recombinant proteins rCCN2 (BioVendor Com. Heidelberg, Germany), rEGFR, and rEGF (R&D Techne Corporation) ([…]) were added in binding buffer (50 mM sodium phosphate, pH 7.5, 500 mM NaCl, and I% Nonidet P-40) and incubated with gentle rotation at 4° C. for 2 h. Thereafter, crosslinks were reversed by boiling in an SDS-PAGE sample buffer (containing 0.1M dithiothreitol (DTT)) before loading on SDS-PAGE gels for immunoblotting analysis. […]

EGFR [4] = target: T1, EGFR (Homo sapiens, UniProt P00533); experiment: FACS and western blot, CCN2 domain responsible for EGFR binding; assay type: cell-based; settings: suspended A549; rCT 100 ng/mL; FIG. 2G
T1 construct: endogenous in cells; host or cells: CL1-5 and A549 human lung adenocarcinoma cell lines
Experimental: After washing, cells were stained with an FITC-labelled goat anti-rabbit secondary antibody (Santa Cruz Biotechnology) for 30 min in the dark. Analysis was then conducted with an FACS Calibur cytometer (Collaborative Biomedical, BD Biosciences).

CC(=O)O[C@H]1C(=O)[C@@]2(C)[C@H]([C@H](OC(=O)c3ccccc3)[C@]3(O)C[C@H](OC(=O)[C@H](O)[C@@H](NC(=O)c4ccccc4)c4ccccc4)C(C)=C1C3(C)C)[C@]1(OC(C)=O)CO[C@@H]1C[C@@H]2O [paclitaxel] was tested, and the cell apoptosis [1] was “increase cell apoptosis more significantly”.

With CC(C)C[C@@H](C=O)NC(=O)[C@H](CC(C)C)NC(=O)[C@H](CC(C)C)NC(=O)OCc1ccccc1 [MG132] (Cbz-Leu-Leu-Leu-aldehyde) the “protein signal intensity(Fold) of EGFR” value (EGFR [2]; MG132, end of time course (24 hours), FIG. 4A) was 1.41 Fold and the “protein signal intensity(Fold) of EGFR” value (EGFR [2]; MG132, start of time course (0 hours), FIG. 4A) was 0.04 Fold.

In the case of COc1cccc(-c2cc(=O)c3ccccc3o2)c1N [PD98059, reference compound], the p-ERK (ERK) is reported as “gradually inhibit p-ERK” and the DAPK expression (DAPK) is reported as “gradually increase the DAPK expression”.

With C[C@@H]1C[C@@H]([C@H](O)CC2CC(=O)NC(=O)C2)C(=O)[C@@H](C)C1 [cycloheximide] the “protein signal intensity(Fold) of EGFR” value (EGFR [2]; cycloheximide, end of time course (48 hours), FIG. 4B) was 0.39 Fold and the “protein signal intensity(Fold) of EGFR” value (EGFR [2]; cycloheximide, start of time course (0 hours), FIG. 4B) was 0.74 Fold.

In the case of “EGF: EGFR ligand, recombinant protein (R&D Techne Corporation) [reference compound]”, the “effect on physical association between CCN2 and EGFR” value (EGFR [3]) is reported as “do not block the physically association between CCN2 and EGFR”.

In the case of COc1cccc2c1C(=O)c1c(O)c3c(c(O)c1C2=O)C[C@@](O)(C(=O)CO)C[C@@H]3O[C@H]1C[C@H](N)[C@H](O)[C@H](C)O1 [doxorubicin], the cell apoptosis [1] is reported as “increase cell apoptosis more significantly”.

B1: rCT: carboxyl-terminal cystine knot (CT) domain of CCN2, CCN2 functional fragment (protein)
chain: KGKKCIRTPKISKPIKFELSGCTSMKTYRAKFCGVCTDGRCCTPHRTTTLPVEFKCPDGEVMKKNMMFIKTCACHYNCPGDNDIFESLYYRKMYGDMA
With B1 the “association of CT-domain of CCN2 with EGFR” value (EGFR [4]) was “has association relationship with EGFR”.
